Measurements taken from patent publication US6656729B2, “Compositions which inhibit apoptosis, methods of purifying the compositions and uses thereof” (Sky High, LLC, priority 1993, dated 2003).

Tested on: C3H 10T1/2 cells
Experiment: Apoptosis assay with C3H 10T1/2 cells (serum deprivation)
Format: cell-based
Conditions: for ACTIVITY (anti-apoptotic activity of known phospholipids): serum-deprived 10T½ cells, dissolved at 10 mM (100× test concentration), pre-incubation in 1% BSA, final BSA ≦0.01%
Protocol: In order to determine the apoptotic activity of the PAIs, the following experiment was performed. […] Exponential growth phase was assured by seeding at 2000 cells per 1 ml (5 ml for a 60 mm culture plate) five days prior to the beginning of the experiment. At T=0, cultures were transferred to serum-free medium, as an apoptosis stimulus, and seed extracts were added. Controls included 10^−7 M 12-O-tetradecanoyl phorbol-13-acetate (TPA) to ensure the responsiveness of the cell culture. The PAI samples prepared by extraction with ethanol and by gel filtration were added to serum free medium at 0.1 g dry weight equivalents and sterile filtered prior to addition to the cultures. Assays were performed in triplicate or quadruplicate. Analyses of the cell responses were made after between 22 and 28 hours of serum deprivation and/or treatment with soy flour derived PAIs. Two assays were performed on each cell culture plate consisting of differential cell counts.
1. All non-adherent or loosely adherent cells were removed from the culture dish and counted by appropriate techniques, typically counting by electric particle counting instrument. These are the apoptotic cells, the serum deprived released cells (SDR), released by the action of cultivation in serum-free medium.
2. The remaining adherent cells (ADH) are exposed to a buffered, typically pH 7.3, balanced salt solution such as Hanks Balanced Salt Solution without calcium and magnesium salts containing 0.05% trypsin and 0.53 mM ethylenediaminetetraacetic acid (EDTA). Each culture is incubated at either room temperature or 37° C. on a rocking platform to ensure uniform distribution of the trypsin reagent over the culture surface. After a standardized period of time, typically 10 minutes, the released cells are removed from each culture dish and measured by the same means as described above, typically electronic particle counting.
All commercial samples were dissolved at a concentration of 10 mM (100× test concentration) in 1% bovine serum albumin (BSA), 0.5 mM calcium chloride, 0.5 mM magnesium chloride, at room temperature. All compounds were tested after pre-incubation in 1% BSA. The final concentration of BSA in the apoptosis was ≦0.01%. […] All tested compounds were obtained from Sigma. The BSA was obtained from Boehringer Mannheim.

| Molecule | ACTIVITY (anti-apoptotic activity of known phospholipids) | further results |
| --- | --- | --- |
| CCCCCCCC/C=C\CCCCCCCC(=O)OC[C@H](COP(=O)(O)O)OC(=O)CCCCCCC/C=C\CCCCCCCC (stereo in doubt) [L-a-phosphatidic acid, dioleoyl (C18:1, [cis]-9)] | 0 | – |
| CCCCCCCC/C=C\CCCCCCCC(=O)OC[C@@H](O)COP(=O)(O)O (stereo in doubt) [L-a-lysophosphatidic acid, oleoyl (C18:1, [cis]-9)] | ++ | Anti-apoptotic activity (in words) (in the presence of Bowman-Birk inhibitors): does not confer anti-apoptotic activity; Anti-apoptotic activity (in words) (in the presence of a protein or proteins to which it specifically binds (serum albumin)): possess anti-apoptotic activity; Anti-apoptotic activity (in words) (in the presence of fraction B): possessed anti-apoptotic activity; Effect of pre-incubation on anti-apoptotic activity (pre-incubation with BSA (FIG. 14)): enhanced; Effect of pre-incubation on anti-apoptotic activity (pre-incubation with fraction B (FIG. 14)): enhanced; Anti-apoptotic activity (in words) (substance or fraction alone): no anti-apoptotic activity |
| L-a-phosphatidyl ethanolamine [L-a-phosphatidyl ethanolamine, Type IV] | 0 | – |
| L-a-lysophosphatidyl ethanolamine | 0 | – |
| L-a-phosphatidyl inositol | 0 | – |
| L-a-phosphatidyl choline [L-a-phosphatidyl choline Type V-EA] | 0 | – |
